For 22 compounds, EC50 results are on record in patent US11130750B2, “Calcium channel inhibitors” (Cavion, Inc., priority 2017, dated 2021).

One test concerns Human Glioma cancer cell line U251. Nature of the test: Cell Proliferation Assay by CCK-8 Reagent. The test is classed as cell-based. The settings on record: Homo sapiens, U-251, 72 h, U251 cells, 72 hours incubation, CCK-8, % viability vs vehicle control. How it is done: Human Glioma cancer cell line U251 was maintained in DMEM (Gibco, Cat #10569-10) supplemented with 10% fetal bovine serum inactivated at 56° C. (Gibco, Cat #10082-147), 100 U/mL penicillin, and 100 μg/mL streptomycin (Gibco, Cat #15140-122) at 37° C. and 1% MEM non-essential amino acid (Sigma, Cat #M7145) in a humid atmosphere containing 5% CO2. The cells were seeded at 2.5×10^3 cells/well in a 96 well plate (BD falcon, Cat #353072) with 200 pt volume/well and kept in 37° C./5% CO2 incubator for 0/N incubation. The seeding density was optimized previously based on growth curve. On the next day, plated cells were incubated with each test compounds at eight different concentrations (100, 50, 25, 12.5, 6.25, 3.125, 1.5 and 0.78) in triplicates. DMSO was used as a Vehicle control and Culture medium was used as blank control for the assay in each plate. The percentage of DMSO was kept uniform across the plate as <1%. The compound treated cells were incubated in 37° C./5% CO2 incubator for 72 hours. After incubation period, […] CCK-8 reagent (Dojindo, Cat #CK04) was added in all the wells and plate was kept in 37° C./5% CO2 incubator for 3 hours. After CCK-8 incubation, absorbance was measured @ 450 nm using Spectrophotometer (BMG, Omega Polar Star). % Viability values at each concentration were calculated with respect to Vehicle control and EC50 values were calculated using graph pad prism software and are shown in Table A.
The EC50 is the concentration needed to bring the measured effect to its halfway point. The compound `CNC(=O)O[C@]1(CCN(C)CCCc2nc3ccccc3[nH]2)CCc2cc(F)ccc2[C@@H]1C(C)C` [Example 1, (1S,2S)-2-(2-((3-(1H-Benzo[d]imidazol-2-yl)propyl)(methyl)amino)ethyl)-6-fluoro-1-isopropyl-1,2,3,4-tetrahydronaphthalen-2-yl methylcarbamate] gave a half-maximal effective concentration (EC50) of 6 µM.

On to `CNC(=O)OC1(CCN(C)CCCc2nc3c(C)ccc(C)c3[nH]2)COc2cc(F)ccc2[C@@H]1C(C)C` (stereo partly drawn) [Example 21A, (4S)-3-(2-((3-(4,7-Dimethyl-1H-benzo[d]imidazol-2-yl)propyl)(methyl)amino)ethyl)-7-fluoro-4-isopropylchroman-3-yl methylcarbamate], for which the EC50 was found to be 7 µM.

`CC(C)[C@H]1c2ccc(F)cc2CC[C@@]1(CCN(C)CCC(C)(C)c1nc2ccccc2[nH]1)OC(=O)NCCN(C)C` [Example 11, (1S,2S)-2-(2-((3-(1H-Benzo[d]imidazol-2-yl)-3-methylbutyl)(methyl)amino)ethyl)-6-fluoro-1-isopropyl-1,2,3,4-tetrahydronaphthalen-2-yl (2-(dimethylamino)ethyl)carbamate] returned an EC50 of 2.5 µM.

`COC(=O)O[C@]1(CCN(C)CCCc2nc3ccccc3[nH]2)CCc2cc(F)ccc2[C@@H]1C(C)C` [Example 2, (1S,2S)-2-(2-((3-(1H-Benzo[d]imidazol-2-yl)propyl)(methyl)amino)ethyl)-6-fluoro-1-isopropyl-1,2,3,4-tetrahydronaphthalen-2-yl methylcarbonate] gave an EC50 of 10 µM.

Turning to `COc1ccc(Cl)c2[nH]c(CCCN(C)CC[C@@]3(OC(=O)N(C)C)CCc4cc(F)ccc4[C@@H]3C(C)C)nc12` [Example 7, (1S,2S)-2-(2-((3-(7-Chloro-4-methoxy-1H-benzo[d]imidazol-2-yl)propyl)(methyl)amino)ethyl)-6-fluoro-1-isopropyl-1,2,3,4-tetrahydronaphthalen-2-yl dimethylcarbamate], the midpoint of the response, the EC50, lay at 7.7 µM.

Compound `CNC(=O)O[C@]1(CCN(C)CCCc2nc3c(OC)ccc(OC)c3[nH]2)CCc2cc(F)ccc2[C@@H]1C(C)C` [Example 5, (1S,2S)-2-(2-((3-(4,7-Dimethoxy-1H-benzo[d]imidazol-2-yl)propyl)(methyl)amino)ethyl)-6-fluoro-1-isopropyl-1,2,3,4-tetrahydronaphthalen-2-yl methylcarbamate] registered an EC50 of 10 µM.

Regarding `CC(C)[C@H]1c2ccc(F)cc2CC[C@@]1(CCN(C)CCC(C)(C)c1nc2ccccc2[nH]1)OC(=O)N1CCOCC1` [Example 9, (1S,2S)-2-(2-((3-(1H-Benzo[d]imidazol-2-yl)-3-methylbutyl)(methyl)amino)ethyl)-6-fluoro-1-isopropyl-1,2,3,4-tetrahydronaphthalen-2-yl morpholine-4-carboxylate], the EC50 is 68 µM.

Turning to `COCCNC(=O)O[C@]1(CCN(C)CCC(C)(C)c2nc3ccccc3[nH]2)CCc2cc(F)ccc2[C@@H]1C(C)C` [Example 12, (1S,2S)-2-(2-((3-(1H-Benzo[d]imidazol-2-yl)-3-methylbutyl)(methyl)amino)ethyl)-6-fluoro-1-isopropyl-1,2,3,4-tetrahydronaphthalen-2-yl (2-methoxyethyl)carbamate], the EC50 stood at 12 µM.

In turn, `CNC(=O)O[C@]1(CCN(C)CCCc2nc3c(C)ccc(C)c3[nH]2)CCc2cc(F)ccc2[C@@H]1C(C)C` [Example 3, (1S,2S)-2-(2-((3-(4,7-Dimethyl-1H-benzo[d]imidazol-2-yl)propyl)(methyl)amino)ethyl)-6-fluoro-1-isopropyl-1,2,3,4-tetrahydronaphthalen-2-yl methylcarbamate] gave an EC50 of 6 µM.

`CC(C)[C@H]1c2ccc(F)cc2CC[C@@]1(CCN(C)CCC(C)(C)c1nc2ccccc2[nH]1)OC(=O)NCCN1CCCC1` [Example 13, (1S,2S)-2-(2-((3-(1H-Benzo[d]imidazol-2-yl)-3-methylbutyl)(methyl)amino)ethyl)-6-fluoro-1-isopropyl-1,2,3,4-tetrahydronaphthalen-2-yl (2-(pyrrolidin-1-yl)ethyl)carbamate] came in with an EC50 of 4.6 µM.

`Cc1ccc(C)c2[nH]c(CCCN(C)CC[C@@]3(OC(=O)N(C)C)CCc4cc(F)ccc4[C@@H]3C(C)C)nc12` [Example 16, (1S,2S)-2-(2-((3-(4,7-dimethyl-1H-benzo[d]imidazol-2-yl)propyl)(methyl)amino)ethyl)-6-fluoro-1-isopropyl-1,2,3,4-tetrahydronaphthalen-2-yl dimethylcarbamate] returned a concentration giving a half-maximal response (EC50) of 6 µM. The EC50 values of the last two compounds are within 1.5-fold of each other.

Compound `CCN(CC)CCNC(=O)O[C@]1(CCN(C)CCC(C)(C)c2nc3ccccc3[nH]2)CCc2cc(F)ccc2[C@@H]1C(C)C` [Example 14, (1S,2S)-2-(2-((3-(1H-Benzo[d]imidazol-2-yl)-3-methylbutyl)(methyl)amino)ethyl)-6-fluoro-1-isopropyl-1,2,3,4-tetrahydronaphthalen-2-yl (2-(diethylamino)ethyl)carbamate] displayed an EC50 of 3.8 µM.

The compound `CC(C)[C@H]1c2ccc(F)cc2CC[C@@]1(CCN(C)CCCc1nc2c(C(F)(F)F)cc(C(F)(F)F)cc2[nH]1)OC(=O)N1CCOCC1` [Example 8, (1S,2S)-2-(2-((3-(4,6-Bis(trifluoromethyl)-1H-benzo[d]imidazol-2-yl)propyl)(methyl)amino)ethyl)-6-fluoro-1-isopropyl-1,2,3,4-tetrahydronaphthalen-2-yl morpholine-4-carboxylate] registered an EC50 of 6.8 µM.

Compound `COCCNC(=O)O[C@]1(CCN(C)CCCc2nc3c(OC)ccc(OC)c3[nH]2)CCc2cc(F)ccc2[C@@H]1C(C)C` [Example 6, (1S,2S)-2-(2-((3-(4,7-Dimethoxy-1H-benzo[d]imidazol-2-yl)propyl)(methyl)amino)ethyl)-6-fluoro-1-isopropyl-1,2,3,4-tetrahydronaphthalen-2-yl (2-methoxyethyl)carbamate] had a half-maximal effective concentration (EC50) of 15 µM.

Turning to `COCC(=O)O[C@]1(CCN(C)CCCc2nc3ccccc3[nH]2)CCc2cc(F)ccc2[C@@H]1C(C)C` [Mibefradil, mibefradil, reference compound], the EC50 is 12 µM. The EC50 values of the last two compounds are within 1.5-fold of each other.

With `CNC(=O)O[C@]1(CCN(C)CCC(C)(C)c2nc3ccccc3[nH]2)CCc2cc(F)ccc2[C@@H]1C(C)C` [Example 10, (1S,2S)-2-(2-((3-(1H-Benzo[d]imidazol-2-yl)-3-methylbutyl)(methyl)amino)ethyl)-6-fluoro-1-isopropyl-1,2,3,4-tetrahydronaphthalen-2-yl methylcarbamate], the EC50 is 9.5 µM.

In the case of `Cc1ccc(C)c2[nH]c(CCCN(C)CC[C@]3(OC(=O)N4CCOCC4)CCc4cc(F)ccc4[C@H]3C(C)C)nc12` [Example 17, (1R,2R)-2-(2-((3-(4,7-Dimethyl-1H-benzo[d]imidazol-2-yl)propyl)(methyl)amino)ethyl)-6-fluoro-1-isopropyl-1,2,3,4-tetrahydronaphthalen-2-yl morpholine-4-carboxylate], the EC50 is 4.3 µM.

As to `CC(C)[C@H]1c2ccc(F)cc2CC[C@@]1(CCN(C)CCC1(c2nc3ccccc3[nH]2)CC1)OC(=O)N1CCOCC1` [Example 19, (1S,2S)-2-(2-((2-(1-(1H-Benzo[d]imidazol-2-yl)cyclopropyl)ethyl)(methyl)amino)ethyl)-6-fluoro-1-isopropyl-1,2,3,4-tetrahydronaphthalen-2-yl morpholine-4-carboxylate], the concentration giving a half-maximal response (EC50) turned out to be 23 µM. This EC50 lies about 5.3-fold higher than the previous one.

Compound `Cc1ccc(C)c2[nH]c(CCCN(C)CC[C@@]3(OC(=O)NCCN(C)C)CCc4cc(F)ccc4[C@@H]3C(C)C)nc12` [Example 4, (1S,2S)-2-(2-((3-(4,7-Dimethyl-1H-benzo[d]imidazol-2-yl)propyl)(methyl)amino)ethyl)-6-fluoro-1-isopropyl-1,2,3,4-tetrahydronaphthalen-2-yl (2-(dimethylamino)ethyl)carbamate] gave a concentration giving a half-maximal response (EC50) of 2.5 µM. Compared with the last compound, the EC50 is about 9.2-fold lower.

Still in this test, the particulars now being: U251 cells, 72 hours incubation, CCK-8, % viability vs vehicle control.
`CNC(=O)OC1(CCN(C)CCCc2nc3ccccc3[nH]2)COc2cc(F)ccc2[C@@H]1C(C)C` (single isomer, unassigned) [Example 20B] had an EC50 of 12 µM.

`CNC(=O)OC1(CCN(C)CCCc2nc3c(C)ccc(C)c3[nH]2)COc2cc(F)ccc2[C@@H]1C(C)C` (stereo partly drawn) [Example 21B, (4S)-3-(2-((3-(4,7-Dimethyl-1H-benzo[d]imidazol-2-yl)propyl)(methyl)amino)ethyl)-7-fluoro-4-isopropylchroman-3-yl methylcarbamate] returned an EC50 of 9 µM.

Compound `CNC(=O)OC1(CCN(C)CCCc2nc3ccccc3[nH]2)COc2cc(F)ccc2[C@@H]1C(C)C` (single isomer, unassigned) [Example 20A] had an EC50 of 54 µM.
